Structures can show the parent of a compound that is named as a salt. Where two headings read alike, the source gives them in different places.
Columns and labels:
[1] = Pharmacokinetic study for oral bioavailability in rats; assay type: in vivo, Male Sprague-Dawley rats; conditions: oral dosing in rats, 30 mg/kg
Procedure: Pharmacokinetic Studies for Determining Oral Bioavailability
Male Sprague-Dawley rats (250-300 g) were restrained individually in a surgical plate (Dae Jong Instrument Company, Seoul, Korea) as supine position. The femoral artery and the femoral vein (iv only) of rats were cannulated with polyethylene tubing (PE-50, Clay Adams, Parsippany, N.J., USA) under light ether anesthesia. After complete recovery from anesthesia, rats were given 30 mg/kg of test compound dissolved in distilled water via oral gavage or given 10 mg/kg via the femoral vein for intravenous (iv) study. Blood samples (0.25 mL) were collected from the femoral artery at 0 (for control), 1 (iv only), 5, 15, 30, 60, 90 (iv only), 120, 180, and 240 min after dosing.
Blood samples were taken into heparinized tube (25 U/mL), deproteinized with 2 volumes of methanol, and centrifuged. The resulting supernatant (60 μL) was analyzed by HPLC eluting with a mixture of 0.1% trifluoroacetic acid aqueous solution and acetonitrile with a ratio of 81% to 19%. Plasma concentration of test compound was recorded and used to calculate the pharmacokinetic parameters: maximum plasma concentration of test compound (Cmax), time of maximum plasma concentration (Tmax) area under the curve (AUC), and fraction of test compound absorbed (F).
Table 2 illustrates the pharmacokinetic results for some exemplary compounds of invention obtained upon oral dosing in rats.

thrombus formation = assay: Rat venous thrombosis model (thromboplastin infusion and vena cava stasis, clot weight); assay type: in vivo, Male Sprague-Dawley rats; conditions: 1 mg/kg iv bolus 5 min before thromboplastin infusion
Procedure: In vivo Studies of the Compounds Claimed Herein Were Conducted Using the Following Procedure
Male Sprague-Dawley rats (body weights 250-300 g, 3-4/group) were anaesthetized by intraperitoneal injection with urethane solution (1.25 g/kg). […] The venae iliolumbar and spermatica were ligated with a silk thread. Thrombus formation was initiated by infusion of a thromboplastin preparation (Simplastin®) using an infusion pump (Model 100, IITC Life Science, USA) via the left femoral vein at 0.5 mL/kg/min. Simplastin® (Organon Teknika, USA) was reconstituted with 4 mL of distilled water and then given diluted at 1:2.5 in distilled water. At the start of infusion for 30 seconds, the vena cava was ligatured below the left renal vein. After the end of infusion, vena cava was also ligatured above the iliac veins 16 mm apart from upper ligature. After 15 min of stasis, the thrombus formed inside the vessel was carefully removed and weighed. Before wighing, the excess blood was removed by blotting the wet clot on the wet Whatman filter paper (see, Millet, J.; Theveniaux, J.; Brown, N. L. Thromb. Haemost. 1992, 67, 176).
Saline (control) or test compounds (1 mg/kg) were injected as a bolus via the femoral vein starting 5 min before the thromboplastin infusion. Bolus injection volume was 0.5 mL/kg. Antithrombotic activity was expressed as a percentage where: Antithrombotic activity (%)=100×(A−B)/A • A=mean clot weight of control group • B=mean clot weight of test compound group

[2] = target: T1, Thrombin prepared from human plasma (Homo sapiens, UniProt P00734); assay: In vitro enzyme assay for thrombin inhibition constants (Chromozym TH substrate, Dixon plot); assay type: biochemical; conditions: pH 7.8, room temperature
T1 construct: Thrombin used in this test was prepared from human plasma; from tissue; host or cells: human plasma
Procedure: In vitro Enzyme Assays for Determining Inhibition Constants
The activity of thrombin was measured spectrophotometrically using tosyl-Gly-Pro-Arg-p-nitroanilide acetate (Chromozym TH, Boehringer Mannheim) as a substrate. […] Each compound was dissolved in DMSO to make a 1 mM stock solution and dilutions were made thereof with assay buffer (0.1 M Tris HCl, 0.15 M NaCl, 0.1% polyethylene glycol 8000, pH 7.8). Different concentrations of inhibitor were mixed with […] of thrombin in 0.8 mL of the buffer. The mixture was incubated for 10 min at room temperature before adding 0.2 mL of the substrate to a final concentration of 20 μM. […] A graph for the reciprocal value of initial velocity to the inhibitor concentration was derived from progress curves by fitting the data using a linear regression program.

[3] = male, Sprague-Dawley, rat, plasma
[4] = male, Sprague-Dawley, rat, plasma, read-out: AUC (converted)
[5] = male, Sprague-Dawley, rat, plasma, read-out: Cmax

SMILES	Tmax [1, 3] [min]	AUC [1, 4] [ng·h/mL]	Cmax [1] [ng/mL]	Antithrombotic activity (inhibition of thrombus formation) (thrombus formation) [%]	Ki [2] [nM]	Cmax [1, 5] [ng/mL]	AUC [1] [ng·h/mL]
N=C(N)c1ccc(CNC(=O)[C@@H]2CCCN2C(=O)[C@H](NS(N)(=O)=O)C(c2ccccc2)c2ccccc2)s1 [Example 1, N-aminosulfonyl-D-diphenylalanyl-L-prolyl-[(5-amidino-2-thienyl)methyl]amide.TFA]	60	4220	2200	100			
CS(=O)(=O)N[C@@H](C(=O)N1CCC[C@H]1C(=O)NCc1ccc(C(=N)N)s1)C(c1ccccc1)c1ccccc1 [Example 3, N-methylsulfonyl-D-diphenylalanyl-L-prolyl-[(5-amidino-2-thienyl)methyl]amide.TFA]				100	0.004		
CS(=O)(=O)N[C@@H](C(=O)N1CCC[C@H]1C(=O)NCc1ccc(CN)s1)C(c1ccccc1)c1ccccc1 [Example 5, N-methylsulfonyl-D-diphenylalanyl-L-prolyl-[(5-aminomethyl-2-thienyl)methyl]amide.TFA]	32	4670			5.8	1800	
COC(=O)N[C@@H](C(=O)N1CCC[C@H]1C(=O)NCc1ccc(C(=N)N)s1)C(c1ccccc1)c1ccccc1 [Example 8, N-methoxycarbonyl-D-diphenylalanyl-L-prolyl-[(5-amidino-2-thienyl)methyl]amide.TFA]	60	26900			0.014	9600	
N=C(N)c1csc(CNC(=O)[C@@H]2CCCN2C(=O)[C@H](NS(N)(=O)=O)C(c2ccccc2)c2ccccc2)c1 [Example 11, N-aminosulfonyl-D-diphenylalanyl-L-prolyl-[(4-amidino-2-thienyl)methyl]amide.TFA]	45			100	0.022	2100	4230
COC(=O)N[C@@H](C(=O)N1CCC[C@H]1C(=O)NCc1cc(C(=N)N)cs1)C(c1ccccc1)c1ccccc1 [Example 14, N-methoxycarbonyl-D-diphenylalanyl-L-prolyl-[(4-amidino-2-thienyl)methyl]amide.TFA]	80					4500	14200
N=C(N)c1cc(CNC(=O)[C@@H]2CCCN2C(=O)[C@H](NS(N)(=O)=O)C(c2ccccc2)c2ccccc2)cs1 [Example 15, N-aminosulfonyl-D-diphenylalanyl-L-prolyl-[(5-amidino-3-thienyl)methyl]amide.TFA]				100	0.056		
COC(=O)N[C@@H](C(=O)N1CCC[C@H]1C(=O)NCc1csc(C(=N)N)c1)C(c1ccccc1)c1ccccc1 [Example 19, N-methoxycarbonyl-D-diphenylalanyl-L-prolyl-[(5-amidino-3-thienyl)methyl]amide.TFA]	80			100	0.06	5200	21620
N=C(N)c1ccc(CNC(=O)[C@@H]2CCCN2C(=O)[C@H](NCC(=O)O)C(c2ccccc2)c2ccccc2)s1 [Example 29, N-carboxymethyl-D-diphenylalanyl-L-prolyl-[(5-amidino-2-thienyl)methyl]amide.2TFA]	15		9500	100	0.015		23170
COC(=O)N[C@@H](C(=O)N1CCC[C@H]1C(=O)NCc1ccc(C(=N)N)o1)C(c1ccccc1)c1ccccc1 [Example 35, N-methoxycabonyl-D-diphenylalanyl-L-prolyl-[(5-amidino-2-furanyl)methyl]amide.TFA]	45	16100			4.6	7100	
N=C(N)c1cc(CNC(=O)[C@@H]2CCCN2C(=O)[C@H](NCC(=O)O)C(c2ccccc2)c2ccccc2)cs1 [Example 39, N-carboxymethyl-D-diphenylalanyl-L-prolyl-[(5-amidino-3-thienyl)methyl]amide.2TFA]	15		4600				3530
N=C(N)c1csc(CNC(=O)[C@@H]2CCCN2C(=O)[C@H](NCC(=O)O)C(c2ccccc2)c2ccccc2)n1 [Example 40, N-carboxymethyl-D-diphenylalanyl-L-prolyl-[(4-amidino-2-thiazolyl)methyl]amide.2TFA]	25		11100		0.6		18770
N=C(N)c1ccc(CNC(=O)[C@@H]2CCCN2C(=O)[C@H](NCCC(=O)O)C(c2ccccc2)c2ccccc2)s1 [Example 41, N-(2-carboxyethyl)-D-diphenylalanyl-L-prolyl-[(5-amidino-2-thienyl)methyl]amide.2TFA]	20		4900	100	0.011		8380
